The first series concerns Male Sprague-Dawley Rats. As to the kind of experiment: Serum clinical chemistries in rats fed compound as dietary admixture. The class given is in vivo. Particulars: % of control; alanine aminotransferase in rat serum; diet 0.3%, 4 days; N = 5. The source says: (§1) A typical experiment consists of 4-6 groups of rats (N = 5 per group) with I group being a control which receives no MDL compound and the other groups being treated with 0.3% MDL compound. Some of the compounds are either repeated at 0.3% or evaluated again at the lower dose of 0.1%. House Male Sprague-Dawley rats, 50-100 g, (Harlan Laboratories, Indianapolis, IN) in groups of 5, feeding ad libitum water and Purina Rodent chow (#5002) with or without MDL compound as a dietary admixture for 4 days. Make dietary admixtures (0.3%) by mixing 1.2 grams of an MDL compound with 400 grams of Purina rodent chow (#5002). Mix the MDL compound with approximately 50 grams of food using a mortar and pestle. This is added to the remainder of the food and mixed for 3 hours on a rotary mixer. In the morning of day 5, anesthetize non-fasted rats with carbon dioxide, and collect blood by cardiac puncture. Sacrifice rats by cervical dislocation. Record body weights and liver weights in grams. Record food consumption as grams • day^-1 • rat^-1. Deaths are recorded as mortality. Use aliquots of fresh serum for clinical chemistries, thiobarbituric acid reactive substances (TBARS) and conjugated diene measurements. Freeze aliquots of serum (∼ 0.5mL) and whole livers at -20°C for compound and metabolite concentration determination at a later time.
Allow blood to clot at room temperature for 30 minutes. Obtain serum after centrifugation for 10 min at 4°C at 3000 rpm in a Beckman J-6M/E centrifuge with a JS-4.2 rotor. Analyze fresh serum by a COBAS MIRA S autoanalyzer (Roche Diagnostics) using Roche diagnostic reagents for the following clinical chemistry measurements: alkaline phosphatase (ALP, kit # 44553), alanine transaminase (ALT, kit # 42375), aspartate aminotransferase (AST, kit # 42381), total cholesterol (CHOL, kit # 44334), triglyceride (TG, kit # 44120), and glucose (GLU, kit # 44558). Calculate ALP, ALT, and AST as units/L. Calculate cholesterol, triglycerides, and glucose as mg/dL.
Regarding `CC(C)=CCC[C@H](C)CCOc1ccc(O)c(C(C)(C)C)c1` (stereo in doubt) [MDL 103,649, Phenol, 2-(1,1-dimethylethyl)-4-[(3,7-dimethyl-6-octenyl)oxy]-, (S)-], the ALT was determined as 119%.

The series is the same for the next values; noted with them: % of control; alkaline phosphatase in rat serum; diet 0.3%, 4 days; N = 5.
For `CC(C)=CCC[C@H](C)CCOc1ccc(O)c(C(C)(C)C)c1` (stereo in doubt) [MDL 103,649, Phenol, 2-(1,1-dimethylethyl)-4-[(3,7-dimethyl-6-octenyl)oxy]-, (S)-], the ALP came out at 74%.

The series is the same for the next values; noted with them: % of control; aspartate aminotransferase in rat serum; diet 0.3%, 4 days; N = 5.
Take `CC(C)=CCC[C@H](C)CCOc1ccc(O)c(C(C)(C)C)c1` (stereo in doubt) [MDL 103,649, Phenol, 2-(1,1-dimethylethyl)-4-[(3,7-dimethyl-6-octenyl)oxy]-, (S)-]: the AST was 82%.

Staying with this series, now noted: % of control; glucose in rat serum; diet 0.3%, 4 days; N = 5.
As to `CC(C)=CCC[C@H](C)CCOc1ccc(O)c(C(C)(C)C)c1` (stereo in doubt) [MDL 103,649, Phenol, 2-(1,1-dimethylethyl)-4-[(3,7-dimethyl-6-octenyl)oxy]-, (S)-], the GLUC was 101%.

Still in this series, the particulars now being: feed or water, 96 h; % of control; total cholesterol in rat serum; diet 0.3%, 4 days; N = 5; read-out: CHOL.
Regarding `CC(C)=CCC[C@H](C)CCOc1ccc(O)c(C(C)(C)C)c1` (stereo in doubt) [MDL 103,649, Phenol, 2-(1,1-dimethylethyl)-4-[(3,7-dimethyl-6-octenyl)oxy]-, (S)-], the response vs control in vivo at 0.3 % in diet was 89%.

The series is the same for the next values; noted with them: feed or water, 96 h; % of control; triglycerides in rat serum; diet 0.3%, 4 days; N = 5; read-out: TRIG.
Consider `CC(C)=CCC[C@H](C)CCOc1ccc(O)c(C(C)(C)C)c1` (stereo in doubt) [MDL 103,649, Phenol, 2-(1,1-dimethylethyl)-4-[(3,7-dimethyl-6-octenyl)oxy]-, (S)-], for which the response vs control in vivo at 0.3 % in diet was found to be 143%.

The next series concerns oxidation of serum lipids. Kind of series: TBARS assay on serum of treated rats (CuSO4-initiated oxidation). It counts as in vivo, Male Sprague-Dawley rats. The settings on record: % of control; thiobarbituric acid reactive substances as nmoles MDA, rat serum; diet 0.3%, 4 days; N = 5.
Excerpt: as §1
In this assay the oxidation of serum lipids is initiated with CuSO4, resulting in the formation of aldehydes, such as malondialdehyde (MDA). Upon incubation with thiobarbituric acid, the absorbance of the aldehydes can be detected at 530-540 nm. As stated in the previous example, TBARS values which are lower than control serum values indicate the relative ability of a test compound to inhibit the oxidation of lipids in a sample. Measure TBARS as follows: mix 100µL of serum with 400µL of a 5mmol CuSO4 solution and incubate at 37°C for 3 hr. Stop the reactions by addition of 1.0mL of 20% trichloroacetic acid. Then add 1.0mL of 0.67% thiobarbituric acid in 0.05 N sodium hydroxide, mix, and incubate the samples for 30 min at 90°C. Centrifuge samples briefly to pellet undissolved material, and transfer the supernatants to a 96-well microtiter plate. Measure absorbances at 540 nm using a Biotek model EL311 microplate reader. The nmoles of MDA produced are calculated from a standard curve of 0 to 10 nmoles of MDA prepared from malonaldehyde bis(dimethylacetal). Serum samples from treated rats are compared to serum samples from control rats that received no MDL compound.
`CC(C)=CCC[C@H](C)CCOc1ccc(O)c(C(C)(C)C)c1` (stereo in doubt) [MDL 103,649, Phenol, 2-(1,1-dimethylethyl)-4-[(3,7-dimethyl-6-octenyl)oxy]-, (S)-]: the TBARS is 29%.

In another series the test system is oxidation of lipids. Kind of series: Conjugated diene lag phase determination on pooled serum of treated rats. The class given is in vivo, Male Sprague-Dawley rats. Particulars: not normalized, mean of 2 determinations of pooled rat serum (N = 5), diet 0.3%, 4 days.
Excerpt: as §1
Conjugated diene lag phase is another indicator of the oxidation of lipids. Lipids exposed to Cu^++ form conjugated dienes that absorb ultraviolet light in the range of 230 to 235 nm. The lag phase of diene formation gives an indication of the amount of oxidation of the lipids. A lag phase longer than control samples indicate inhibition of the oxidation. Determine conjugated diene lay phase using a Varian DMS200 spectrophotometer (fitted with a constant temperature, 5 cuvette sample changer) at 30°C. Add twenty (20) µL of pooled serum to cuvettes containing 3.0mL phosphate buffered saline, pH 7.5, and mix. Measure the absorbances of all cuvettes and set the instrument baseline to zero using the lowest absorbing sample. Next, add 100µL of 1 mmol CuSO4 and mix immediately. Record the absorbance of each cuvette at 2 min intervals for a period of 840 min. Capture the data and transfer to a Microsoft EXCEL® spreadsheet where the curves are smoothed and differentials obtained. Determine lag times mathematically as minutes. Pool serum samples (N = 5); data presented are the mean values of 2 determinations. Compare serum samples from treated rats to serum samples from control rats that received no MDL compound.
On to `CC(C)=CCC[C@H](C)CCOc1ccc(O)c(C(C)(C)C)c1` (stereo in doubt) [MDL 103,649, Phenol, 2-(1,1-dimethylethyl)-4-[(3,7-dimethyl-6-octenyl)oxy]-, (S)-], for which the “CONJ. DIENE” value stood at 375 min.

System in the next series: not listed separately
As to the kind of experiment: Animal parameters (food, body weight, liver weight/body weight, mortality) in rats. It counts as in vivo. Particulars: % of control; grams eaten per day per rat; diet 0.3%, 4 days; N = 5.
Excerpt: as §1
Take `CC(C)=CCC[C@H](C)CCOc1ccc(O)c(C(C)(C)C)c1` (stereo in doubt) [MDL 103,649, Phenol, 2-(1,1-dimethylethyl)-4-[(3,7-dimethyl-6-octenyl)oxy]-, (S)-]: the food came to 95%.

The series is the same for the next values; noted with them: % of control; liver weight/body weight; rat; diet 0.3%, 4 days; N = 5.
The compound `CC(C)=CCC[C@H](C)CCOc1ccc(O)c(C(C)(C)C)c1` (stereo in doubt) [MDL 103,649, Phenol, 2-(1,1-dimethylethyl)-4-[(3,7-dimethyl-6-octenyl)oxy]-, (S)-] returned a lw/bw of 111%.

The series is the same for the next values; noted with them: % of control; weight in grams; rat; diet 0.3%, 4 days; N = 5.
In the case of `CC(C)=CCC[C@H](C)CCOc1ccc(O)c(C(C)(C)C)c1` (stereo in doubt) [MDL 103,649, Phenol, 2-(1,1-dimethylethyl)-4-[(3,7-dimethyl-6-octenyl)oxy]-, (S)-], the body wt. came out at 94%.

Staying with this series, now noted: male, Sprague-Dawley, rat, in vivo, 4 days.
The compound `CC(C)=CCC[C@H](C)CCOc1ccc(O)c(C(C)(C)C)c1` (stereo in doubt) [MDL 103,649, Phenol, 2-(1,1-dimethylethyl)-4-[(3,7-dimethyl-6-octenyl)oxy]-, (S)-] registered a mortality of 0%.

System in the next series: not listed separately
Kind of series: HPLC quantitation of compound and metabolite concentration in rat serum and liver. The class given is in vivo. The settings on record: male, Sprague-Dawley, oral, 0.3 % in chow; parent compound concentration in rat liver; diet 0.3%, 4 days; mean N = 5; read-out: Liver Parent.
Excerpt: as §1
Determine serum and liver concentrations of parent compound and the metabolites, bisphenol and diphenoquinone, by reverse phase HPLC using a Waters 990 Powerline system. Homegenize livers (1 gram samples) with 5.0mL PBS, pH 7.4, using a Polytron tissue homogenizer at setting 5 for 20-30 seconds. Extract serum or liver homogenates as follows: add 100µL of either serum or homogenate to 2.0mL diethyl ether: ethanol (3:1) while vortexing the tube. Cap the sample tubes and centrifuge for 10 min at 5°C at 3500 rpm in a Beckman GPKR centrifuge with a GH 3.7 rotor. Transfer the supernatants to clean tubes and dry under N2. Reconstitute samples with 200µL of acetonitrile : hexane : 0.1 M ammonium acetate (90: 6.5 : 3.5, by vol.). Then, inject 100µL onto a Waters Deltapak C18-300 Å column, and elute with an 83% acetonitrile : 17% water mobile phase at a flow rate of 1.5mL/min. Record absorbances at the wavelengths of 240, 254, and 420nm. Calculate compound concentrations from known quantities of authentic parent compounds after correction for recovery. […]. Calculate concentrations as µg/mL of serum and µg/g of liver.
For the compound `CC(C)=CCC[C@H](C)CCOc1ccc(O)c(C(C)(C)C)c1` (stereo in doubt) [MDL 103,649, Phenol, 2-(1,1-dimethylethyl)-4-[(3,7-dimethyl-6-octenyl)oxy]-, (S)-], the concentration at 5 day was determined as 0 ng/g.

The series is the same for the next values; noted with them: male, Sprague-Dawley, oral, 0.3 % in chow; parent compound concentration in rat serum; diet 0.3%, 4 days; mean N = 5; read-out: Serum Parent.
Consider `CC(C)=CCC[C@H](C)CCOc1ccc(O)c(C(C)(C)C)c1` (stereo in doubt) [MDL 103,649, Phenol, 2-(1,1-dimethylethyl)-4-[(3,7-dimethyl-6-octenyl)oxy]-, (S)-], for which the concentration at 5 day amounted to 1400 ng/mL.
